# From ChEMBL document CHEMBL1671626, “In vitro profiling of ceftaroline against a collection of recent bacterial clinical isolates from across the United States” (2008)
# What was measured:
# Assay type in all cases: functional
# Staphylococcus aureus [1] = test: Antibacterial activity against coagulase-negative and oxacillin-resistant Staphylococcus aureus assessed as resistant isolates by CLSI M7-A7 broth microdilution method
# Staphylococcus aureus [2] = test: Antibacterial activity against coagulase-negative and oxacillin-resistant Staphylococcus aureus by CLSI M7-A7 broth microdilution method
# Streptococcus pyogenes [3] = test: Antibacterial activity against erythromycin-susceptible Streptococcus pyogenes by CLSI M7-A7 broth microdilution method
# Enterococcus faecalis [4] = test: Antibacterial activity against vancomycin-resistant Enterococcus faecalis assessed as resistant isolates by CLSI M7-A7 broth microdilution method
# Staphylococcus aureus [5] = test: Antibacterial activity against coagulase-negative and oxacillin-susceptible Staphylococcus aureus assessed as susceptible isolates by CLSI M7-A7 broth microdilution method
# Moraxella catarrhalis = test: Antibacterial activity against beta lactamase-positive Moraxella catarrhalis by CLSI M7-A7 broth microdilution method
# Staphylococcus aureus [6] = test: Antibacterial activity against methicillin-susceptible Staphylococcus aureus assessed as resistant isolates by CLSI M7-A7 broth microdilution method
# Staphylococcus aureus [7] = test: Antibacterial activity against methicillin-susceptible Staphylococcus aureus by CLSI M7-A7 broth microdilution method
# Streptococcus viridans [8] = test: Antibacterial activity against penicillin-nonsusceptible Streptococcus viridans assessed as resistant isolates by CLSI M7-A7 broth microdilution method
# Staphylococcus aureus [9] = test: Antibacterial activity against methicillin-resistant Staphylococcus aureus assessed as susceptible isolates by CLSI M7-A7 broth microdilution method
# Pasteurella multocida = test: Antibacterial activity against Pasteurella multocida by CLSI M7-A7 broth microdilution method
# Streptococcus agalactiae [10] = test: Antibacterial activity against erythromycin-susceptible Streptococcus agalactiae assessed as susceptible isolates by CLSI M7-A7 broth microdilution method
# Enterococcus faecium [11] = test: Antibacterial activity against vancomycin-resistant Enterococcus faecium assessed as susceptible isolates by CLSI M7-A7 broth microdilution method
# Streptococcus agalactiae [12] = test: Antibacterial activity against erythromycin-nonsusceptible Streptococcus agalactiae by CLSI M7-A7 broth microdilution method
# Streptococcus viridans [13] = test: Antibacterial activity against penicillin-susceptible Streptococcus viridans by CLSI M7-A7 broth microdilution method
# Staphylococcus aureus [14] = test: Antibacterial activity against coagulase-negative and oxacillin-susceptible Staphylococcus aureus by CLSI M7-A7 broth microdilution method
# Enterococcus faecalis [15] = test: Antibacterial activity against vancomycin-resistant Enterococcus faecalis by CLSI M7-A7 broth microdilution method
# Streptococcus agalactiae [16] = test: Antibacterial activity against erythromycin-susceptible Streptococcus agalactiae by CLSI M7-A7 broth microdilution method
# Streptococcus viridans [17] = test: Antibacterial activity against penicillin-nonsusceptible Streptococcus viridans assessed as susceptible isolates by CLSI M7-A7 broth microdilution method
# Streptococcus agalactiae [18] = test: Antibacterial activity against erythromycin-nonsusceptible Streptococcus agalactiae assessed as susceptible isolates by CLSI M7-A7 broth microdilution method
# Staphylococcus aureus [19] = test: Antibacterial activity against methicillin-susceptible Staphylococcus aureus assessed as susceptible isolates by CLSI M7-A7 broth microdilution method
# Enterococcus faecalis [20] = test: Antibacterial activity against vancomycin-susceptible Enterococcus faecalis assessed as resistant isolates by CLSI M7-A7 broth microdilution method
# Enterococcus faecalis [21] = test: Antibacterial activity against vancomycin-susceptible Enterococcus faecalis by CLSI M7-A7 broth microdilution method
# Enterococcus faecium [22] = test: Antibacterial activity against vancomycin-resistant Enterococcus faecium assessed as resistant isolates by CLSI M7-A7 broth microdilution method
# Staphylococcus aureus [23] = test: Antibacterial activity against methicillin-resistant Staphylococcus aureus by CLSI M7-A7 broth microdilution method
# Streptococcus viridans [24] = test: Antibacterial activity against penicillin-nonsusceptible Streptococcus viridans by CLSI M7-A7 broth microdilution method
# Streptococcus viridans [25] = test: Antibacterial activity against penicillin-susceptible Streptococcus viridans assessed as susceptible isolates by CLSI M7-A7 broth microdilution method
# Streptococcus pyogenes [26] = test: Antibacterial activity against erythromycin-nonsusceptible Streptococcus pyogenes assessed as susceptible isolates by CLSI M7-A7 broth microdilution method
# Enterococcus faecium [27] = test: Antibacterial activity against vancomycin-resistant Enterococcus faecium by CLSI M7-A7 broth microdilution method
# Streptococcus pyogenes [28] = test: Antibacterial activity against erythromycin-nonsusceptible Streptococcus pyogenes by CLSI M7-A7 broth microdilution method
# Staphylococcus aureus [29] = test: Antibacterial activity against coagulase-negative and oxacillin-susceptible Staphylococcus aureus assessed as resistant isolates by CLSI M7-A7 broth microdilution method
# Streptococcus pyogenes [30] = test: Antibacterial activity against erythromycin-susceptible Streptococcus pyogenes assessed as susceptible isolates by CLSI M7-A7 broth microdilution method
# Staphylococcus aureus [31] = test: Antibacterial activity against coagulase-negative and oxacillin-resistant Staphylococcus aureus assessed as susceptible isolates by CLSI M7-A7 broth microdilution method
# Enterococcus faecalis [32] = test: Antibacterial activity against vancomycin-susceptible Enterococcus faecalis assessed as susceptible isolates by CLSI M7-A7 broth microdilution method
# Staphylococcus aureus [33] = test: Antibacterial activity against methicillin-resistant Staphylococcus aureus assessed as resistant isolates by CLSI M7-A7 broth microdilution method
compound,measurement,setting,value
CC1(C)S[C@@H]2[C@H](NC(=O)Cc3ccccc3)C(=O)N2[C@H]1C(=O)O [PENICILLIN G],Activity,Staphylococcus aureus [1],97.7%
same,MIC50,Staphylococcus aureus [2],8 µg/mL
same,MIC,Streptococcus pyogenes [3],≤ 0.12 µg/mL
same,MIC50,Streptococcus pyogenes [3],≤ 0.12 µg/mL
same,MIC90,Streptococcus pyogenes [3],≤ 0.12 µg/mL
same,Activity,Enterococcus faecalis [4],0%
same,Activity,Staphylococcus aureus [5],32.3%
same,MIC50,Moraxella catarrhalis,4 µg/mL
same,MIC90,Moraxella catarrhalis,16 µg/mL
same,Activity,Staphylococcus aureus [6],83.3%
same,MIC50,Staphylococcus aureus [7],4 µg/mL
same,MIC90,Staphylococcus aureus [7],> 16 µg/mL
same,Activity,Streptococcus viridans [8],28.6%
same,Activity,Staphylococcus aureus [9],0.5%
same,MIC50,Pasteurella multocida,≤ 0.12 µg/mL
same,MIC90,Pasteurella multocida,0.25 µg/mL
same,Activity,Streptococcus agalactiae [10],100%
same,Activity,Enterococcus faecium [11],0%
same,MIC,Streptococcus agalactiae [12],≤ 0.12 µg/mL
same,MIC50,Streptococcus agalactiae [12],≤ 0.12 µg/mL
same,MIC90,Streptococcus agalactiae [12],≤ 0.12 µg/mL
same,MIC,Streptococcus viridans [13],≤ 0.12 µg/mL
same,MIC50,Streptococcus viridans [13],≤ 0.12 µg/mL
same,MIC90,Streptococcus viridans [13],≤ 0.12 µg/mL
same,MIC50,Staphylococcus aureus [14],0.5 µg/mL
same,MIC90,Staphylococcus aureus [14],2 µg/mL
same,MIC50,Enterococcus faecalis [15],2 µg/mL
same,MIC90,Enterococcus faecalis [15],4 µg/mL
same,MIC,Streptococcus agalactiae [16],≤ 0.12 µg/mL
same,MIC50,Streptococcus agalactiae [16],≤ 0.12 µg/mL
same,MIC90,Streptococcus agalactiae [16],≤ 0.12 µg/mL
same,Activity,Streptococcus viridans [17],0%
same,Activity,Streptococcus agalactiae [18],95.2%
same,Activity,Staphylococcus aureus [19],16.7%
same,Activity,Enterococcus faecalis [20],0%
same,MIC50,Enterococcus faecalis [21],2 µg/mL
same,MIC90,Enterococcus faecalis [21],4 µg/mL
same,Activity,Enterococcus faecium [22],100%
same,MIC50,Staphylococcus aureus [23],> 16 µg/mL
same,MIC50,Streptococcus viridans [24],0.5 µg/mL
same,MIC90,Streptococcus viridans [24],8 µg/mL
same,Activity,Streptococcus viridans [25],100%
same,Activity,Streptococcus pyogenes [26],100%
same,MIC,Enterococcus faecium [27],> 16 µg/mL
same,MIC50,Enterococcus faecium [27],> 16 µg/mL
same,MIC90,Enterococcus faecium [27],> 16 µg/mL
same,MIC,Streptococcus pyogenes [28],≤ 0.12 µg/mL
same,MIC50,Streptococcus pyogenes [28],≤ 0.12 µg/mL
same,MIC90,Streptococcus pyogenes [28],≤ 0.12 µg/mL
same,Activity,Staphylococcus aureus [29],67.7%
same,Activity,Streptococcus pyogenes [30],98.9%
same,Activity,Staphylococcus aureus [31],2.3%
same,Activity,Enterococcus faecalis [32],100%
same,Activity,Staphylococcus aureus [33],99.5%
